In ChEMBL document CHEMBL2146453, “Synthesis of novel ursolic acid heterocyclic derivatives with improved abilities of antiproliferation and induction of p53, p21waf1 and NOXA in pancreatic cancer cells” (Bioorg Med Chem, 2012):

Legend:
Assay type in all cases: functional, cell-based
ASPC1 = experiment: Cytotoxicity against human AsPC1 cells after 72 hrs by MTT assay; conditions: ASPC1, 72 h
A549 = experiment: Cytotoxicity against human A549 cells after 72 hrs by MTT assay; conditions: A549, 72 h
HepG2 = experiment: Cytotoxicity against human HepG2 cells after 72 hrs by MTT assay; conditions: HepG2, 72 h
MCF7 = experiment: Cytotoxicity against human MCF7 cells after 72 hrs by MTT assay; conditions: MCF7, 72 h
PANC-1 = experiment: Cytotoxicity against human PANC1 cells after 72 hrs by MTT assay; conditions: PANC-1, 72 h
MIA PaCa-2 = experiment: Cytotoxicity against human MIAPaCa2 cells after 72 hrs by MTT assay; conditions: MIA PaCa-2, 72 h
PC-3 = experiment: Cytotoxicity against human PC3 cells after 72 hrs by MTT assay; conditions: PC-3, 72 h

CC(=O)O[C@H]1CC[C@]2(C)[C@H]3C(=O)C=C4[C@@H]5[C@@H](C)[C@H](C)CC[C@]5(C(=O)n5ccnc5)CC[C@@]4(C)[C@]3(C)CC[C@H]2C1(C)C
IC50 (ASPC1): 13.9 µM

CC(=O)O[C@H]1CC[C@]2(C)[C@H]3C(=O)C=C4[C@@H]5[C@@H](C)[C@H](C)CC[C@]5(C(=O)n5ccnc5C)CC[C@@]4(C)[C@]3(C)CC[C@H]2C1(C)C
IC50 (ASPC1): 15.3 µM

Cc1nccn1/C=C1/C[C@]2(C)[C@H]3CC=C4[C@@H]5[C@@H](C)[C@H](C)CC[C@]5(C(=O)n5ccnc5C)CC[C@@]4(C)[C@]3(C)CC[C@H]2C(C)(C)C1=O
IC50 (ASPC1): 11.3 µM

COC(=O)[C@]12CC[C@@H](C)[C@H](C)[C@H]1C1=CC(=O)[C@@H]3[C@@]4(C)C/C(=C/n5cnnc5)C(=O)C(C)(C)[C@@H]4CC[C@@]3(C)[C@]1(C)CC2
IC50 (A549): 12.9 µM | IC50 (HepG2): 7.9 µM | IC50 (MCF7): 12.5 µM | IC50 (PANC-1): 12.1 µM | IC50 (ASPC1): 8.1 µM | IC50 (MIA PaCa-2): 7.8 µM | IC50 (PC-3): 9.5 µM

C[C@H]1[C@H](C)CC[C@]2(C(=O)O)CC[C@]3(C)C(=CC[C@@H]4[C@@]5(C)C/C(=C/O)C(=O)C(C)(C)[C@@H]5CC[C@]43C)[C@H]12
IC50 (ASPC1): 13.4 µM

C[C@H]1[C@H](C)CC[C@]2(C(=O)O)CC[C@]3(C)C(=CC[C@@H]4[C@@]5(C)CCC(=O)C(C)(C)[C@@H]5CC[C@]43C)[C@H]12 [URSONIC ACID]
IC50 (ASPC1): 24.5 µM

C[C@H]1[C@H](C)CC[C@]2(C(=O)O)CC[C@]3(C)C(=CC[C@@H]4[C@@]5(C)CC[C@H](O)C(C)(C)[C@@H]5CC[C@]43C)[C@H]12 [URSOLIC ACID]
IC50 (A549): 11.4 µM | IC50 (HepG2): 15 µM | IC50 (MCF7): 12.3 µM | IC50 (PANC-1): 14.9 µM | IC50 (ASPC1): 12.6 µM | IC50 (MIA PaCa-2): 10.4 µM | IC50 (PC-3): 20.8 µM

CC(=O)O[C@H]1CC[C@]2(C)[C@H]3C(=O)C=C4[C@@H]5[C@@H](C)[C@H](C)CC[C@]5(C(=O)n5cnnc5)CC[C@@]4(C)[C@]3(C)CC[C@H]2C1(C)C
IC50 (ASPC1): 10.2 µM

Cc1nccn1C(=O)[C@]12CC[C@@H](C)[C@H](C)[C@H]1C1=CC[C@@H]3[C@@]4(C)CCC(=O)C(C)(C)[C@@H]4CC[C@@]3(C)[C@]1(C)CC2
IC50 (ASPC1): 19.6 µM

COC(=O)[C@]12CC[C@@H](C)[C@H](C)[C@H]1C1=CC[C@@H]3[C@@]4(C)CC[C@H](O)C(C)(C)[C@@H]4CC[C@@]3(C)[C@]1(C)CC2 [METHYL URSOLATE]
IC50 (ASPC1): 17.7 µM

C[C@H]1[C@H](C)CC[C@]2(C(=O)n3ccnc3)CC[C@]3(C)C(=CC(=O)[C@@H]4[C@@]5(C)CCC(=O)C(C)(C)[C@@H]5CC[C@]43C)[C@H]12
IC50 (ASPC1): 11.7 µM

COC(=O)[C@]12CC[C@@H](C)[C@H](C)[C@H]1C1=CC(=O)[C@@H]3[C@@]4(C)C/C(=C/O)C(=O)C(C)(C)[C@@H]4CC[C@@]3(C)[C@]1(C)CC2
IC50 (ASPC1): 9 µM

C[C@H]1[C@H](C)CC[C@]2(C(=O)n3cnnc3)CC[C@]3(C)C(=CC[C@@H]4[C@@]5(C)C/C(=C/n6cnnc6)C(=O)C(C)(C)[C@@H]5CC[C@]43C)[C@H]12
IC50 (ASPC1): 3.9 µM

CC(=O)O[C@H]1CC[C@]2(C)[C@H]3CC=C4[C@@H]5[C@@H](C)[C@H](C)CC[C@]5(C(=O)n5ccnc5)CC[C@@]4(C)[C@]3(C)CC[C@H]2C1(C)C
IC50 (ASPC1): 15.2 µM

COC(=O)[C@]12CC[C@@H](C)[C@H](C)[C@H]1C1=CC(=O)[C@@H]3[C@@]4(C)C/C(=C/n5ccnc5)C(=O)C(C)(C)[C@@H]4CC[C@@]3(C)[C@]1(C)CC2
IC50 (A549): 12.2 µM | IC50 (HepG2): 27.6 µM | IC50 (MCF7): 9.4 µM | IC50 (PANC-1): 18.2 µM | IC50 (ASPC1): 2.3 µM | IC50 (MIA PaCa-2): 24.3 µM | IC50 (PC-3): 12.9 µM

C[C@H]1[C@H](C)CC[C@]2(C(=O)n3ccnc3)CC[C@]3(C)C(=CC[C@@H]4[C@@]5(C)C/C(=C/n6ccnc6)C(=O)C(C)(C)[C@@H]5CC[C@]43C)[C@H]12
IC50 (ASPC1): 5.1 µM

CC(=O)O[C@H]1CC[C@]2(C)[C@H]3CC=C4[C@@H]5[C@@H](C)[C@H](C)CC[C@]5(C(=O)n5cnnc5)CC[C@@]4(C)[C@]3(C)CC[C@H]2C1(C)C
IC50 (ASPC1): 23.3 µM

CC(=O)O[C@H]1CC[C@]2(C)[C@H]3C(=O)C=C4[C@@H]5[C@@H](C)[C@H](C)CC[C@]5(C(=O)O)CC[C@@]4(C)[C@]3(C)CC[C@H]2C1(C)C [11-OXOURSOLIC ACID ACETATE]
IC50 (ASPC1): 33.5 µM

COC(=O)[C@]12CC[C@@H](C)[C@H](C)[C@H]1C1=CC[C@@H]3[C@@]4(C)C/C(=C/n5ccnc5)C(=O)C(C)(C)[C@@H]4CC[C@@]3(C)[C@]1(C)CC2
IC50 (A549): 5.6 µM | IC50 (HepG2): 2 µM | IC50 (MCF7): 5.3 µM | IC50 (PANC-1): 5.1 µM | IC50 (ASPC1): 5.8 µM | IC50 (MIA PaCa-2): 7.3 µM | IC50 (PC-3): 6.8 µM

Cc1nccn1C(=O)[C@]12CC[C@@H](C)[C@H](C)[C@H]1C1=CC(=O)[C@@H]3[C@@]4(C)CCC(=O)C(C)(C)[C@@H]4CC[C@@]3(C)[C@]1(C)CC2
IC50 (ASPC1): 5.1 µM

COC(=O)[C@]12CC[C@@H](C)[C@H](C)[C@H]1C1=CC[C@@H]3[C@@]4(C)C/C(=C/n5ccnc5C)C(=O)C(C)(C)[C@@H]4CC[C@@]3(C)[C@]1(C)CC2
IC50 (A549): 5.3 µM | IC50 (HepG2): 4 µM | IC50 (MCF7): 2.2 µM | IC50 (PANC-1): 5.6 µM | IC50 (ASPC1): 2.1 µM | IC50 (MIA PaCa-2): 5.6 µM | IC50 (PC-3): 3.5 µM

C[C@H]1[C@H](C)CC[C@]2(C(=O)O)CC[C@]3(C)C(=CC(=O)[C@@H]4[C@@]5(C)CCC(=O)C(C)(C)[C@@H]5CC[C@]43C)[C@H]12
IC50 (ASPC1): 54.9 µM

C[C@H]1[C@H](C)CC[C@]2(C(=O)n3cnnc3)CC[C@]3(C)C(=CC(=O)[C@@H]4[C@@]5(C)CCC(=O)C(C)(C)[C@@H]5CC[C@]43C)[C@H]12
IC50 (ASPC1): 9.9 µM

COC(=O)[C@]12CC[C@@H](C)[C@H](C)[C@H]1C1=CC(=O)[C@@H]3[C@@]4(C)C/C(=C/n5ccnc5C)C(=O)C(C)(C)[C@@H]4CC[C@@]3(C)[C@]1(C)CC2
IC50 (A549): 18.7 µM | IC50 (HepG2): 8.5 µM | IC50 (MCF7): 3.5 µM | IC50 (PANC-1): 14.4 µM | IC50 (ASPC1): 2.1 µM | IC50 (MIA PaCa-2): 8.3 µM | IC50 (PC-3): 5.7 µM

CC(=O)O[C@H]1CC[C@]2(C)[C@H]3CC=C4[C@@H]5[C@@H](C)[C@H](C)CC[C@]5(C(=O)n5ccnc5C)CC[C@@]4(C)[C@]3(C)CC[C@H]2C1(C)C
IC50 (ASPC1): 20.2 µM

C[C@H]1[C@H](C)CC[C@]2(C(=O)n3ccnc3)CC[C@]3(C)C(=CC[C@@H]4[C@@]5(C)CCC(=O)C(C)(C)[C@@H]5CC[C@]43C)[C@H]12
IC50 (ASPC1): 15.2 µM

C[C@H]1[C@H](C)CC[C@]2(C(=O)n3cnnc3)CC[C@]3(C)C(=CC[C@@H]4[C@@]5(C)CCC(=O)C(C)(C)[C@@H]5CC[C@]43C)[C@H]12
IC50 (ASPC1): 19.2 µM

COC(=O)[C@]12CC[C@@H](C)[C@H](C)[C@H]1C1=CC[C@@H]3[C@@]4(C)C/C(=C/O)C(=O)C(C)(C)[C@@H]4CC[C@@]3(C)[C@]1(C)CC2
IC50 (ASPC1): 7.2 µM

CC(=O)O[C@H]1CC[C@]2(C)[C@H]3CC=C4[C@@H]5[C@@H](C)[C@H](C)CC[C@]5(C(=O)O)CC[C@@]4(C)[C@]3(C)CC[C@H]2C1(C)C [O-ACETYLURSOLIC ACID]
IC50 (ASPC1): 71 µM
